Read-outs that look alike come from different tables or passages of the source.
Test system: SMN2-linked luciferase-reporter gene construct
Assay: SMN splice reporter assay (SMN2-linked luciferase reporter, Example 10)
Format: cell-based
Settings: for maximal fold induction: read-out: SMN Splice Reporter Assay (Example 10) Avg MaxFold Increase
Procedure, shortened: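 Values are fold-increase in luciferase signal relative to baseline cells without compound. The cervical carcinoma line used holds a fusion of alternatively spliced SMN2 sequence and luciferase. Readable frame, and thus signal, arises only with exon 7-including splicing.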

[1] = SMN2-linked luciferase reporter, average
[2] = maximum fold increase of reporter signal, average

| EC50 [1] | Compound | maximal fold induction [2] | maximal fold induction (SMN2-linked luciferase reporter, average maximum fold increase) | SMN Splice Reporter Assay (Example 10) Avg MaxFold Increase [2] |
| --- | --- | --- | --- | --- |
| 50 nM | CC(=O)c1ccc2c(c1)C(=O)N(c1ccc(C(C)C(=O)O)cc1)C2 (stereo not shown) [ALB-113387] | 1.18 |  |  |
| 1120 nM | CCCCCc1ccc2c(c1)C(=O)N(c1ccc(C(C)C(=O)O)cc1)C2 (stereo not shown) [ALB-113388] | 1.77 |  |  |
| 179 nM | COCC(C)c1ccc(N2Cc3ccccc3C2=O)cc1 (stereo not shown) [ALB-113389] | 1.34 |  |  |
| 10400 nM | C=Cc1ccc2c(c1)CN(c1ccc(C(C)C(=O)O)cc1)C2=O (stereo not shown) [ALB-113390] | 1.29 |  |  |
| 15300 nM | CCOc1cccc2c1C(=O)N(c1ccc(C(C)C(=O)O)cc1)C2 (stereo not shown) [ALB-113391] | 1.46 |  |  |
| 4860 nM | CC(C)Oc1cccc2c1C(=O)N(c1ccc(C(C)C(=O)O)cc1)C2 (stereo not shown) [ALB-113392] | 1.65 |  |  |
| 209 nM | C=Cc1cccc2c1C(=O)N(c1ccc(C(C)C(=O)O)cc1)C2 (stereo not shown) [ALB-113393] | 1.21 |  |  |
| 1840 nM | CCc1cccc2c1C(=O)N(c1ccc(C(C)C(=O)O)cc1)C2 (stereo not shown) [ALB-113395] | 1.49 |  |  |
| 218 nM | CCc1ccc2c(c1)CN(c1ccc(C(C)C(=O)O)cc1)C2=O (stereo not shown) [ALB-113490] | 1.48 |  |  |
|  | CCCCCc1ccc2c(c1)CN(c1ccc(C(C)C(=O)O)cc1)C2=O (stereo not shown) [ALB-113491] | 1.12 |  |  |
| 24 nM | CC(C)Oc1ccc2c(c1)C(=O)N(c1ccc(C(C)C(=O)O)cc1)C2 (stereo not shown) [ALB-113492] | 1.67 |  |  |
| 81 nM | CC(C(=O)O)c1ccc(N2Cc3ccc(OC4CCCC4)cc3C2=O)cc1 (stereo not shown) [ALB-113493] | 1.89 |  |  |
| 1170 nM | CCCCCOc1ccc2c(c1)C(=O)N(c1ccc(C(C)C(=O)O)cc1)C2 (stereo not shown) [ALB-113494] | 1.75 |  |  |
| 18300 nM | CCCCCCc1cccc2c1C(=O)N(c1ccc(C(C)C(=O)O)cc1)C2 (stereo not shown) [ALB-113495] | 1.35 |  |  |
|  | CC(=O)c1cccc2c1C(=O)N(c1ccc(C(C)C(=O)O)cc1)C2 (stereo not shown) [ALB-113496] | 1.18 |  |  |
|  | CCCCCc1cccc2c1C(=O)N(c1ccc(C(C)C(=O)O)cc1)C2 (stereo not shown) [ALB-113497] | 1.18 |  |  |
|  | CC(C(=O)O)c1ccc(N2Cc3cc(O)ccc3C2=O)cc1 (stereo not shown) [ALB-113560] | 1.05 |  |  |
|  | CC(C)c1ccc2c(c1)CN(c1ccc(C(C)C(=O)O)cc1)C2=O (stereo not shown) [ALB-113561] | 1.21 |  |  |
| 55 nM | CC(C)c1ccc2c(c1)C(=O)N(c1ccc(C(C)C(=O)O)cc1)C2 (stereo not shown) [ALB-113563] | 1.8 |  |  |
|  | CCCc1ccc2c(c1)CN(c1ccc(C(C)C(=O)O)cc1)C2=O (stereo not shown) [ALB-113564] | 1.05 |  |  |
|  | CC(C)c1cccc2c1C(=O)N(c1ccc(C(C)C(=O)O)cc1)C2 (stereo not shown) [ALB-113565] | 1.19 |  |  |
| 5150 nM | CC(C(=O)O)c1ccc(N2Cc3cccc(OC4CCCC4)c3C2=O)cc1 (stereo not shown) [ALB-113566] | 1.96 |  |  |
|  | CC(C(=O)O)c1ccc(N2Cc3cc(N(C)C)ccc3C2=O)cc1 (stereo not shown) [ALB-113646] | 1.05 |  |  |
|  | CC(C(=O)O)c1ccc(N2Cc3cc(NS(C)(=O)=O)ccc3C2=O)cc1 (stereo not shown) [ALB-113647] |  | 1.11 |  |
|  | CCOc1ccc2c(c1)CN(c1ccc(C(C)C(=O)O)cc1)C2=O (stereo not shown) [ALB-113649] | 1.13 |  |  |

| EC50 [1] | Compound | maximal fold induction [2] | maximal fold induction (SMN2-linked luciferase reporter, average maximum fold increase) | SMN Splice Reporter Assay (Example 10) Avg MaxFold Increase [2] |
| --- | --- | --- | --- | --- |
| 209 nM | CC(CBr)c1ccc(N2Cc3ccccc3C2=O)cc1 (stereo not shown) [ALB-113651] | 1.44 |  |  |
| 142 nM | CC(C(=O)O)c1ccc(N2Cc3cc(F)ccc3C2=O)cc1 (stereo not shown) [ALB-113754] | 1.7 |  |  |
| 15700 nM | CCCc1cccc2c1C(=O)N(c1ccc(C(C)C(=O)O)cc1)C2 (stereo not shown) [ALB-113756] | 1.33 |  |  |
|  | CCCCc1cccc2c1C(=O)N(c1ccc(C(C)C(=O)O)cc1)C2 (stereo not shown) [ALB-113757] | 1.18 |  |  |
| 1400 nM | CC(CN1CCOCC1)c1ccc(N2Cc3ccccc3C2=O)cc1 (stereo not shown) [ALB-113758] | 1.29 |  |  |
| 510 nM | CCCCCOc1ccc2c(c1)CN(c1ccc(C(C)C(=O)O)cc1)C2=O (stereo not shown) [ALB-113759] | 1.22 |  |  |
|  | CC(C)Oc1ccc2c(c1)CN(c1ccc(C(C)C(=O)O)cc1)C2=O (stereo not shown) [ALB-113834] | 1.1 |  |  |
|  | CCCCc1ccc2c(c1)CN(c1ccc(C(C)C(=O)O)cc1)C2=O (stereo not shown) [ALB-113835] | 1.15 |  |  |
| 544 nM | CC(C(=O)O)c1ccc(N2Cc3ccc(F)cc3C2=O)cc1 (stereo not shown) [ALB-113836] | 1.78 |  |  |
|  | CC(C(=O)O)c1ccc(N2Cc3cc(OC4CCCC4)ccc3C2=O)cc1 (stereo not shown) [ALB-113963] | 1.14 |  |  |
|  | CC(C(=O)O)c1ccc(N2Cc3cc(OCC(F)(F)F)ccc3C2=O)cc1 (stereo not shown) [ALB-113964] | 1.08 |  |  |
| 79 nM | C=Cc1ccc2c(c1)C(=O)N(c1ccc(C(C)C(=O)O)cc1)C2 (stereo not shown) [ALB-113965] | 1.83 |  |  |
| 663 nM | CC(C(=O)O)c1ccc(N2Cc3ccc(OCC(F)(F)F)cc3C2=O)cc1 (stereo not shown) [ALB-113966] | 1.78 |  |  |
| 88 nM | C/C=C/c1ccc2c(c1)C(=O)N(c1ccc(C(C)C(=O)O)cc1)C2 (stereo not shown) [ALB-114086] | 1.99 |  |  |
| 226 nM | C/C=C(\C)c1ccc2c(c1)C(=O)N(c1ccc(C(C)C(=O)O)cc1)C2 (stereo not shown) [ALB-114087] | 1.88 |  |  |
| 78 nM | CCC(C)c1ccc2c(c1)C(=O)N(c1ccc(C(C)C(=O)O)cc1)C2 (stereo not shown) [ALB-114088] | 2.19 |  |  |
| 902 nM | C/C=C\c1ccc2c(c1)C(=O)N(c1ccc(C(C)COC)cc1)C2 (stereo not shown) [ALB-114089] | 1.55 |  |  |
| 214 nM | CC(CF)c1ccc(N2Cc3ccccc3C2=O)cc1 (stereo not shown) [ALB-114090] | 1.47 |  |  |
| 699 nM | CCCc1ccc2c(c1)C(=O)N(c1ccc(C(C)COC)cc1)C2 (stereo not shown) [ALB-114091] | 1.46 |  |  |
|  | COc1cc2c(cc1OC)C(=O)N(c1ccc(C(C)C(=O)O)cc1)C2 (stereo not shown) [ALB-114437] | 1.2 |  |  |
| 1900 nM | CC(C(=O)O)c1ccc(N2Cc3ccc(CN4CCOCC4)cc3C2=O)cc1 (stereo not shown) [ALB-114438] | 1.27 |  |  |
| 52 nM | COCc1ccc2c(c1)C(=O)N(c1ccc(C(C)C(=O)O)cc1)C2 (stereo not shown) [ALB-114439] | 1.51 |  |  |
| 303 nM | CC(CN)c1ccc(N2Cc3ccccc3C2=O)cc1 (stereo not shown) [ALB-114604] | 1.39 |  |  |
| 181 nM | COc1ccc2c(c1)C(=O)N(c1ccc(C(C)CO)cc1)C2 (stereo not shown) [ALB-114606] | 1.31 |  |  |
| 35 nM | CC(C(=O)O)c1ccc(N2Cc3ccc(C4CCCC4)cc3C2=O)cc1 (stereo not shown) [ALB-114607] | 1.51 |  |  |

| EC50 [1] | Compound | maximal fold induction [2] | maximal fold induction (SMN2-linked luciferase reporter, average maximum fold increase) | SMN Splice Reporter Assay (Example 10) Avg MaxFold Increase [2] |
| --- | --- | --- | --- | --- |
|  | CC(C(=O)O)c1ccc(N2Cc3ccc(CN(C)C)cc3C2=O)cc1 (stereo not shown) [ALB-114608] | 1.23 |  |  |
|  | CC(C(=O)O)c1ccc(N2Cc3ccc(N4CCOCC4)cc3C2=O)cc1 (stereo not shown) [ALB-114738a] | 1.08 |  |  |
| 58 nM | CC(C(=O)O)c1ccc(N2Cc3ccc(N4CCCC4)cc3C2=O)cc1 (stereo not shown) [ALB-114739a] | 1.55 |  |  |
| 822 nM | CC(CF)c1ccc(N2Cc3ccc(C4CCCC4)cc3C2=O)cc1 (stereo not shown) [ALB-114740] | 1.22 |  |  |
|  | CC(C)OCc1ccc2c(c1)C(=O)N(c1ccc(C(C)C(=O)O)cc1)C2 (stereo not shown) [ALB-114741] | 1.67 |  |  |
| 42 nM | CCOCc1ccc2c(c1)C(=O)N(c1ccc(C(C)C(=O)O)cc1)C2 (stereo not shown) [ALB-114742] | 1.58 |  |  |
| 448 nM | CCOCc1ccc2c(c1)C(=O)N(c1ccc(C(C)CO)cc1)C2 (stereo not shown) [ALB-114743] | 1.37 |  |  |
|  | CCOCC(C)c1ccc(N2Cc3ccccc3C2=O)cc1 (stereo not shown) [ALB-114744] | 1.18 |  |  |
| 81 nM | CC(C(=O)O)c1ccc(N2Cc3cc4c(cc3C2=O)OCO4)cc1 (stereo not shown) [ALB-114782] | 1.65 |  |  |
|  | COCC(C)c1ccc(N2Cc3ccc(C4CCCC4)cc3C2=O)cc1 (stereo not shown) [ALB-114845] | 1.15 |  |  |
| 493 nM | CCOCc1ccc2c(c1)C(=O)N(c1ccc(C(C)COC)cc1)C2 (stereo not shown) [ALB-114846] | 1.3 |  |  |
|  | COCC(C)c1ccc(N2Cc3ccc(COC(C)C)cc3C2=O)cc1 (stereo not shown) [ALB-114847] | 1.23 |  |  |
| 302 nM | Cc1ccc(N2Cc3ccccc3C2=O)cc1 [ALB-114898] | 1.36 |  |  |
| 33 nM | CCCOc1ccc2c(c1)C(=O)N(c1ccc(C(C)C(=O)O)cc1)C2 (stereo not shown) [ALB-114934] | 1.87 |  |  |
| 977 nM | CC(C)OCC(C)c1ccc(N2Cc3ccccc3C2=O)cc1 (stereo not shown) [ALB-114935] | 1.26 |  |  |
| 131 nM | CC(C)(C)c1ccc(N2Cc3ccccc3C2=O)cc1 [ALB-114936] | 1.41 |  |  |
| 298 nM | CCCc1ccc2c(c1)C(=O)N(c1ccc(C(C)C)cc1)C2 [ALB-114939] | 1.43 |  |  |
| 97 nM | CCc1ccc(N2Cc3ccccc3C2=O)cc1 [ALB-114940] | 1.36 |  |  |
| 299 nM | COCc1ccc2c(c1)C(=O)N(c1ccc(C(C)CO)cc1)C2 (stereo not shown) [ALB-114941] | 1.35 |  |  |
| 217 nM | COCc1ccc2c(c1)C(=O)N(c1ccc(C(C)COC)cc1)C2 (stereo not shown) [ALB-114942] | 1.33 |  |  |
| 1320 nM | COCC(C)c1ccc(N2Cc3cc(OC)c(OC)cc3C2=O)cc1 (stereo not shown) [ALB-114943] | 1.35 |  |  |
| 53 nM | O=C1c2ccccc2CN1c1ccc(C2CCCC2)cc1 [ALB-115068] | 1.41 |  |  |
| 824 nM | COCCOc1ccc2c(c1)C(=O)N(c1ccc(C(C)C(=O)O)cc1)C2 (stereo not shown) [ALB-115071] | 1.39 |  |  |
| 32 nM | COCC(C)c1ccc(N2Cc3ccc(C)cc3C2=O)cc1 (stereo not shown) [ALB-115072] |  |  | 1.28 |
|  | COCCc1ccc(N2Cc3ccccc3C2=O)cc1 [ALB-115073] | 1.19 |  |  |
